The EC50 is the concentration needed to bring the measured effect to its halfway point. Low values mean higher potency in that assay, high ones lower potency in that assay.

The values that follow come from US10961215B2, “N-aryl and N-heteroaryl piperidine derivatives as liver X receptor beta agonists, compositions, and their use” (Merck Sharp & Dohme Corp., priority 2016, dated 2021).

Test [1] addresses T1, GST tagged LXRalpha LBD (ligand binding domain) (Homo sapiens, UniProt Q13133).
T1 construct: purchased Invitrogen pv4655
T1 sequence (Q13133 209-447 limits assumed): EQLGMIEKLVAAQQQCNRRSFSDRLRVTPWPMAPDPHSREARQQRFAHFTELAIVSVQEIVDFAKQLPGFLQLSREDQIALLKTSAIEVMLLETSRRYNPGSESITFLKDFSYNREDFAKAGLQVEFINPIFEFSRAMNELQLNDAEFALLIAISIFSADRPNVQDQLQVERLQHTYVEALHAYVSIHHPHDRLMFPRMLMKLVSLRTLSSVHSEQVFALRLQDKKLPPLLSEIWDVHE
In words: LanthaScreen TR-FRET Liver X Receptor Coactivator Assay, LXR alpha-LBD (co-activator recruitment; IP and % Emax relative to T0901317). The format is biochemical. To be noted: for LXR alpha IP (nM) / EC50: Inflection Point of co-activator recruitment, LXR alpha-LBD, TR-FRET; for Emax: read-out: LXR alpha actiivty at max dose (%). The protocol: (§1) Potency (Inflection Point, IP) and efficacy (Emax) are evaluated via compound-induced co-activator recruitment to glutathione-S-transferase (GST) tagged LXRbeta and LXRalpha LBD (ligand binding domain) proteins in relation to reference dual agonist compound T0901317 (N-(2,2,2-Trifluoroethyl)-N-[4-[2,2,2-trifluoro-1-hydroxy-1-(trifluoromethyl)ethyl]phenyl]benzenesulfonamide) using the LanthaScreen™ TR-FRET Liver X Receptor Coactivator Assays according to manufacturer's instructions (Invitrogen catalog number pv4658.pps and pv4655). While running the LanthaScreen™ TR-FRET Liver X Receptor Coactivator Assay, LXR alpha-LBD or LXR beta-LBD was added to ligand test compounds followed by addition of a mixture of a fluorescein-labelled coactivator peptide and terbium-conjugated anti-GST antibody. After an incubation period at room temperature, TR-FRET (time-resolved fluorescence resonance energy transfer) was measured using a filter-based instrument capable of TR-FRET, e.g. PerkinElmer Envision.

Test [2] concerns the target T2, GST tagged LXRbeta LBD (ligand binding domain) (Homo sapiens, UniProt P55055).
T2 construct: purchased Invitrogen pv4658.pps
T2 sequence (P55055 222-460 limits assumed): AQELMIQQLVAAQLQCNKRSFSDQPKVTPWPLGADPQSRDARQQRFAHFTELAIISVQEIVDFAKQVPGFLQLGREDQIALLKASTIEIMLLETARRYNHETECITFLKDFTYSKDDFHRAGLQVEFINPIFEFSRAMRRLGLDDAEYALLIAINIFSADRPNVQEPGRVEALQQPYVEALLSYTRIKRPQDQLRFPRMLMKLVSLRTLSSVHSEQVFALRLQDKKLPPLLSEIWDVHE
In words: LanthaScreen TR-FRET Liver X Receptor Coactivator Assay, LXR beta-LBD (co-activator recruitment; IP and % Emax relative to T0901317). As to conditions: for EC50: Inflection Point of co-activator recruitment, LXR beta-LBD, TR-FRET; for Emax: read-out: LXR beta actiivty at max dose (%). The test is classed as biochemical. The protocol:
as §1
In general terms: Time-resolved FRET reads energy transfer from a long-lived donor to a nearby acceptor.

The mark [3] stands for this setting: efficacy at max dose in relation to reference T0901317, LXR alpha-LBD.
[4] abbreviates: efficacy at max dose in relation to reference T0901317, LXR beta-LBD.

As to `CN(C)C(=O)c1ccc(N2CCC(CCCN(C)C(=O)[C@@](N)(c3ccccc3)C(F)(F)F)CC2)nc1Cl` [Example 1-30, (S)-6-(4-(3-(2-amino-3,3,3-trifluoro-N-methyl-2-phenylpropanamido)propyl)piperidin-1-yl)-2-chloro-N,N-dimethylnicotinamide], the “LXR alpha IP (nM)” value in test [1] is “No IP”. Also, the Emax in test [1] (setting [3]) turned out to be 1%; in test [2] (setting [4]) it was 47%. Further, the concentration for a half-maximal effect (EC50) in test [2] was 237 nM.

On to `CN(C)C(=O)c1ccc(N2CCC(CCCN(C)C(=O)[C@](C)(O)c3ccccc3)CC2)nc1Cl` [Example 1-20, (R)-2-chloro-6-(4-(3-(2-hydroxy-N-methyl-2-phenylpropanamido)propyl)piperidin-1-yl)-N,N-dimethylnicotinamide], for which the “LXR alpha IP (nM)” value in test [1] was “No IP”. The Emax in test [1] (setting [3]) amounted to 6%; in test [2] (setting [4]), 32%. In test [2], this compound came in with a concentration giving a half-maximal response (EC50) of 508 nM.

As for `CN(C)C(=O)c1ccc(N2CCC(CCCN(C)C(=O)C3(C(F)(F)F)CCCO3)CC2)nc1Cl` (centres unmarked) [Example 1-56, 2-chloro-N,N-dimethyl-6-(4-(3-(N-methyl-2-(trifluoromethyl)tetrahydrofuran-2-carboxamido)propyl)piperidin-1-yl)nicotinamide], the EC50 worked out at 2610 nM in test [1] and 168 nM in test [2]. In addition, the Emax is 43% in test [1] (setting [3]) and 80% in test [2] (setting [4]).

Take `CN(C)C(=O)c1ccc(N2CCC(CCCN(C)C(=O)[C@](O)(c3ccccc3)C(F)(F)F)CC2)nc1Cl` [Example 1-1, (R)-2-chloro-N,N-dimethyl-6-(4-(3-(3,3,3-trifluoro-2-hydroxy-N-methyl-2-phenylpropanamido)propyl)piperidin-1-yl)nicotinamide]: the EC50 in test [1] worked out at 752 nM. In test [1] (setting [3]), the “LXR alpha actiivty at max dose (%)” value is on record as 27%. Further, the “LXR beta actiivty at max dose (%)” value in test [2] (setting [4]) turned out to be 78%.

For `COc1cccc([C@@](O)(C(=O)N(C)CCCC2CCN(c3ccc(C(=O)N4C(C)CCC4C)c(Cl)n3)CC2)C(F)(F)F)c1` (stereo partly drawn) [Example 2-10, (2R)-N-(3-(1-(6-chloro-5-(2,5-dimethylpyrrolidine-1-carbonyl)pyridin-2-yl)piperidin-4-yl)propyl)-3,3,3-trifluoro-2-hydroxy-2-(3-methoxyphenyl)-N-methylpropanamide], in test [1], the “LXR alpha IP (nM)” value was “No IP”. The Emax in test [1] (setting [3]) is 0%; in test [2] (setting [4]), 43%. The compound also gave a concentration for a half-maximal effect (EC50) in test [2] of 134 nM.

Take `CNC(=O)c1ccc(N2CCC3(CC2)C[C@H]3CCN(C)C(=O)[C@](O)(c2ccccc2)C(F)(F)F)cc1Cl` (single isomer, unassigned) [Example 7-7]: the concentration for a half-maximal effect (EC50) stood at 504 nM in test [1] and 22 nM in test [2]. Also, the results for the Emax in test [1] (setting [3]) and in test [2] (setting [4]) were 42% and 64%, respectively.

Take `CN(C)C(=O)c1ccc(N2CCC(C)(CCCN(C)C(=O)[C@@]3(c4ccccc4)CCCO3)CC2)nc1Cl` [Example 9-4, (S)-2-chloro-N,N-dimethyl-6-(4-methyl-4-(3-(N-methyl-2-phenyltetrahydrofuran-2-carboxamido)propyl)piperidin-1-yl)nicotinamide]: the “LXR alpha IP (nM)” value in test [1] is listed as “No IP”. The figures for the Emax in test [1] (setting [3]) and in test [2] (setting [4]) were 14% and 67%, respectively. The EC50 in test [2] is 63 nM.

On to `COc1cccc([C@@](O)(C(=O)NC[C@H](F)CC2CCN(c3ccc(C(=O)N(C)C)c(Cl)n3)CC2)C(F)(F)F)c1` [Example 3-7, 2-chloro-6-(4-((R)-2-fluoro-3-((R)-3,3,3-trifluoro-2-hydroxy-2-(3-methoxy-phenyl)propanamido)propyl)piperidin-1-yl)-N,N-dimethylnicotinamide], for which the “LXR alpha IP (nM)” value in test [1] is “No IP”. Moreover, the Emax came out at 13% in test [1] (setting [3]) and 94% in test [2] (setting [4]). This compound also registered an EC50 in test [2] of 425 nM.

On to `COc1cccc(C2(C(=O)N(C)CCCC3CCN(c4ccc(C(=O)N(C)C)c(Cl)n4)CC3)CCOCC2)c1` [Example 1-44, 2-chloro-6-(4-(3-(4-(3-methoxyphenyl)-N-methyltetrahydro-2H-pyran-4-carboxamido)propyl)piperidin-1-yl)-N,N-dimethylnicotinamide], for which the “LXR alpha IP (nM)” value in test [1] is “No IP”. Besides, the Emax was 0% in test [1] (setting [3]) and 39% in test [2] (setting [4]). Besides, the EC50 in test [2] came to 822 nM.

Turning to `COc1cccc([C@@](O)(C(=O)N(C)CC[C@H]2CC23CCN(c2ccc(C(=O)N(C)C(C)C)c(Cl)n2)CC3)C(F)(F)F)c1` [Example 7-17, 2-chloro-N-isopropyl-N-methyl-6-((R)-1-(2-((R)-3,3,3-trifluoro-2-hydroxy-2-(3-methoxyphenyl)-N-methylpropanamido)ethyl)-6-azaspiro[2.5]octan-6-yl)nicotinamide], the EC50 turned out to be 160 nM in test [1] and 12 nM in test [2]. The Emax stood at 36% in test [1] (setting [3]) and 59% in test [2] (setting [4]).

As for `CN(C)C(=O)c1ccc(N2CCC(CCCNC(=O)C(O)(c3ccccc3)C(F)(F)F)CC2)cc1Cl` (centres unmarked) [Example 5-1, 2-chloro-N,N-dimethyl-4-(4-(3-(3,3,3-trifluoro-2-hydroxy-2-phenylpropanamido)propyl)piperidin-1-yl)benzamide], the EC50 was 3510 nM in test [1] and 610 nM in test [2]. Also, the Emax in test [1] (setting [3]) came to 14%; in test [2] (setting [4]), 95%.

As for `CN(C)C(=O)c1ccc(N2CCC(CCCN(C)C(=O)C3(c4ccccc4)OCCO3)CC2)nc1Cl` [Example 1-14, 2-chloro-N,N-dimethyl-6-(4-(3-(N-methyl-2-phenyl-1,3-dioxolane-2-carboxamido)propyl)piperidin-1-yl)nicotinamide], the “LXR alpha IP (nM)” value in test [1] is on record as “No IP”. Moreover, the Emax in test [1] (setting [3]) is 0%; in test [2] (setting [4]) it was 19%. The compound also came in with an EC50 in test [2] of 366 nM.

Take `CN(C)C(=O)c1ccc(N2CCC(CCCN(C)C(=O)[C@](O)(c3cccc(OC4CC4)c3)C(F)(F)F)CC2)nc1Cl` [Example 1-41, (R)-2-chloro-6-(4-(3-(2-(3-cyclopropoxyphenyl)-3,3,3-trifluoro-2-hydroxy-N-methylpropanamido)propyl)piperidin-1-yl)-N,N-dimethylnicotinamide]: the “LXR alpha IP (nM)” value in test [1] was “No IP”. Further, the Emax is 0% in test [1] (setting [3]) and 44% in test [2] (setting [4]). Moreover, a half-maximal response in test [2] (EC50) required 105 nM.

For `CCc1cccc([C@@](O)(C(=O)N(C)CCCC2CCN(c3ccc(C(=O)N(C)C)c(Cl)n3)CC2)C(F)(F)F)c1` [Example 1-28, (R)-2-chloro-6-(4-(3-(2-(3-ethylphenyl)-3,3,3-trifluoro-2-hydroxy-N-methylpropanamido)propyl)piperidin-1-yl)-N,N-dimethylnicotinamide], the “LXR alpha IP (nM)” value in test [1] is “No IP”. Besides, the Emax came out at 0% in test [1] (setting [3]) and 39% in test [2] (setting [4]). In test [2], the half-maximal effective concentration (EC50) is 67 nM.

For the compound `COc1cccc([C@@](O)(C(=O)N(C)CCCC2(F)CCN(c3ccc(C(=O)N(C)C)c(Cl)n3)CC2)C(F)(F)F)c1` [Example 12-3, (R)-2-chloro-6-(4-fluoro-4-(3-(3,3,3-trifluoro-2-hydroxy-2-(3-methoxyphenyl)-N-methylpropanamido)propyl)piperidin-1-yl)-N,N-dimethylnicotinamide], the “LXR alpha IP (nM)” value in test [1] is reported as “No IP”. The Emax in test [1] (setting [3]) was found to be 12%; in test [2] (setting [4]) it was 58%. This compound also registered a 50% effective concentration (EC50) in test [2] of 151 nM.
